According to patent US10174037B2, “Dihydropyrazolopyrimidinone compounds as PDE2 inhibitors” (Merck Sharp & Dohme Corp., priority 2015, dated 2019):

Target: Rhesus PDE2A3 (Macaca mulatta, UniProt B3VTJ2)
Experiment: PDE2 fluorescence polarization (IMAP FP) assay, rhesus PDE2A3
Assay type: biochemical, rhesus macaque
Conditions: Lab B, read-out: Rhesus PDE2 Ki (nM) Lab B
Procedure: A Labcyte Echo 555 (Labcyte, Sunnyvale, Calif.) is used to dispense 200 nL from each well of the titration plate to the 384 well assay plate. Ten microliters of a solution of enzyme (1/2000 final dilution from aliquots; sufficient to produce 20% substrate conversion) was added to the assay plate. Next 10 uL of a separate solution of the substrate FAM-labeled cAMP (50 nM final concentration product # R7506 from Molecular Devices) and the activator cGMP (1 uM final concentration), prepared in the assay buffer (10 mM Tris HCl, pH 7.2, 10 mM MgCl2, 0.05% NaN3 0.01% Tween-20, and 1 mM DTT) was added to the assay plate and shaken to mix. The reaction is allowed to proceed at room temperature for 60 minutes. A binding solution is then made from the kit components, comprised of 80% Solution A, 20% Solution B and binding reagent at a volume of 1/600 the total binding solution. The enzymatic reaction is stopped by addition of 60 μL of the binding solution to each well of the assay plates and the plates are sealed and shaken for 30 seconds. The plate was incubated at room temperature for at least one hour prior to determining the fluorescence polarization (FP). The parallel and perpendicular fluorescence of each well of the plate was measured using a Tecan Genios Pro plate reader (Tecan, Switzerland) or Perkin Elmer EnVision™ plate reader (Waltham, Mass.). Fluorescence polarization (mP) was calculated from the parallel (S) and perpendicular (P) fluorescence of each sample well and the analogous values for the median control well, containing only substrate (So and Po), using the following equation: Polarization (mP)=1000*(S/So−P/Po)/(S/So+P/Po).
Dose-inhibition profiles for each compound were characterized by fitting the mP data to a four-parameter equation given below.
An apparent (KM) for FAM-labeled cAMP of ˜10 uM was used.

Chain of Rhesus PDE2A3 (B3VTJ2 1-941): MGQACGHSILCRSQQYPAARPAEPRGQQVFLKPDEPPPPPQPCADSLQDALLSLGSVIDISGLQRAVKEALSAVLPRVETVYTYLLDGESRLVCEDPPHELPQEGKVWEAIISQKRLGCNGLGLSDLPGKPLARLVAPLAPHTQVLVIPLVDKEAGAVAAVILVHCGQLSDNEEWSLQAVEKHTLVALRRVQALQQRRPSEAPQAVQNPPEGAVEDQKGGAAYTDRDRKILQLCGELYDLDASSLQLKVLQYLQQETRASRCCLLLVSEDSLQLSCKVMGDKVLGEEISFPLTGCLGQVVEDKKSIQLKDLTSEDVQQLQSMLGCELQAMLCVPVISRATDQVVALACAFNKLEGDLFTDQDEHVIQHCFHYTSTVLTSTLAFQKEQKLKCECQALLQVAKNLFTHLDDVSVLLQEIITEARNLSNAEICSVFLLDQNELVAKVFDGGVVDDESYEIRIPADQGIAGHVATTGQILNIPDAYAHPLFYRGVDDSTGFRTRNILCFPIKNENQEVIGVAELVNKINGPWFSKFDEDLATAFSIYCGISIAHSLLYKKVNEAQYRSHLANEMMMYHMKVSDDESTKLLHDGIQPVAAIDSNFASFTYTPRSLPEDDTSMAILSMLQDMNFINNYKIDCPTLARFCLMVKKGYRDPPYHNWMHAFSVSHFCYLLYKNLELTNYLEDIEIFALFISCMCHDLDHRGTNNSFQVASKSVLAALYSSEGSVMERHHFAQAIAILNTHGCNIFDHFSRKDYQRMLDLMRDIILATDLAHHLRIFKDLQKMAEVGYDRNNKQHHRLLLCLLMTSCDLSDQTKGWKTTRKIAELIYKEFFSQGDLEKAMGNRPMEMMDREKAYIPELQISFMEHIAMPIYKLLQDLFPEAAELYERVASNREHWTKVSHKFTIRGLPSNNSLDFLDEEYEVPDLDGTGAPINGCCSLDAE

| Compound | Ki [nM] |
| --- | --- |
| CC(C)C(c1ccc(OC(F)(F)F)cc1)n1nc(CC(F)(F)F)c2c(=O)[nH]c(O)nc21 (single isomer, unassigned) [Example 232, (R)- or (S)-6-Hydroxy-1-(2-methyl-1-(4-(trifluoromethoxy)phenyl)propyl)-3-(2,2,2-trifluoroethyl)-1H-pyrazolo[3,4-d]pyrimidin-4(5H)-one] | 192 |
| CC(C)C(c1ccc(OC(F)(F)F)cc1)n1nc(CC(F)(F)F)c2c(=O)[nH]c(O)nc21 (single isomer, unassigned) [Example 233, (S)- or (R)-6-Hydroxy-1-(2-methyl-1-(4-(trifluoromethoxy)phenyl)propyl)-3-(2,2,2-trifluoroethyl)-1H-pyrazolo[3,4-d]pyrimidin-4(5H)-one] | 132 |
| CC(c1ccc(C(C)(C)C)cc1)n1nc(CC(F)(F)F)c2c(=O)[nH]c(O)nc21 (single isomer, unassigned) [Example 237, (S)- or (R)-1-(1-(4-tert-Butylphenyl)ethyl)-6-hydroxy-3-(2,2,2-trifluoroethyl)-1H-pyrazolo[3,4-d]pyrimidin-4(5H)-one] | 494 |
| CC(C)C(c1ccc(C(F)(F)F)cc1)n1nc(CC(F)(F)F)c2c(=O)[nH]c(O)nc21 (single isomer, unassigned) [Example 241, (S)- or (R)-6-Hydroxy-1-(2-methyl-1-(4-(trifluoromethyl)phenyl)propyl)-3-(2,2,2-trifluoroethyl)-1H-pyrazolo[3,4-d]pyrimidin-4(5H)-one] | 199 |
| O=c1[nH]c(O)nc2c1c(CC(F)(F)F)nn2C(c1ccc(OC(F)(F)F)cc1)C1CC1 (single isomer, unassigned) [Example 243, (S)- or (R)-1-(Cyclopropyl(4-(trifluoromethoxy)phenyl)methyl)-6-hydroxy-3-(2,2,2-trifluoroelhyl)-1H-pyrazolo[3,4-d]pyrimidin-4(5H)-one] | 191 |
| CC1(C(c2ccc(C(F)(F)F)cc2)n2nc(CC(F)(F)F)c3c(=O)[nH]c(O)nc32)CC1 (single isomer, unassigned) [Example 245, (S)- or (R)-6-Hydroxy-l-((1-methylcyclopropyl)(4-(trifluoromethyl)phenyl)methyl)-3-(2,2,2-trifluoroethyl)-1H-pyrazolo[3,4-d]pyrimidin-4(5H)-one] | 698 |
| CC(C)(C)c1ccc(C(C2CC2)n2nc(CC(F)(F)F)c3c(=O)[nH]c(O)nc32)cc1 (single isomer, unassigned) [Example 251, (S)- or (R)-1-((4-tert-Butylphenyl)(cyclopropyl)methyl)-6-hydroxy-3-(2,2,2-trifluoroethyl)-1H-pyrazolo[3,4-d]pyrimidin-4(5H)-one] | 363 |
| CC(C)C(c1ccc(C(F)(F)F)c(F)c1)n1nc(CC(F)(F)F)c2c(=O)[nH]c(O)nc21 (single isomer, unassigned) [Example 259] | 148 |
| CC(C)C(c1ccc(C(C)(C)C)cc1)n1nc(CC(F)(F)F)c2c(=O)[nH]c(O)nc21 (single isomer, unassigned) [Example 261, (S)- or (R)-1-(1-(4-tert-Butylphenyl)-2-methylpropyl)-6-hydroxy-3-(2,2,2-trifluoroethyl)-1H-pyrazolo[3,4-d]pyrimidin-4(5H)-one] | ~1400 |
| CC(C)(C)C(c1ccc(C(F)(F)F)cc1)n1nc(CC(F)(F)F)c2c(=O)[nH]c(O)nc21 (single isomer, unassigned) [Example 263, (S)- or (R)-1-(2,2-Dimethyl-1-(4-(trifluoromethyl)phenyl)propyl)-6-hydroxy-3-(2,2,2-trifluoroethyl)-1H-pyrazolo[3,4-d]pyrimidin-4(5H)-one] | 5890 |
| CC(C)C(c1ccc(OC(F)(F)F)c(F)c1)n1nc(CC(F)(F)F)c2c(=O)[nH]c(O)nc21 (single isomer, unassigned) [Example 265, (S)- or (R)-1-(1-(3-Fluoro-4-(trifluoromethoxy)phenyl)-2-methylpropyl)-6-hydroxy-3-(2,2,2-trifluoroethyl)-1H-pyrazolo[3,4-d]pyrimidin-4(5H)-one] | 276 |
| CC(c1ccc(OC(F)(F)F)cc1)n1nc(C(F)F)c2c(=O)[nH]c(O)nc21 (single isomer, unassigned) [Example 273, (R)- or (S)-3-(Difluoromethyl)-6-hydroxy-1-(1-(4-(trifluoromethoxy)phenyl)ethyl)-1H-pyrazolo[3,4-d]pyrimidin-4(5H)-one] | 113 |
| O=c1[nH]c(O)nc2c1c(C(F)F)nn2C(c1ccc(C(F)(F)F)cc1)C1CC1 (single isomer, unassigned) [Example 280, (S)- or (R)-1-(Cyclopropyl(4-(trifluoromethyl)phenyl)methyl)-3-(difluoromethyl)-6-hydroxy-1H-pyrazolo[3,4-d]pyrimidin-4(5H)-one] | 85 |
| CC(C)(C)C(c1ccc(C(F)(F)F)cc1)n1nc(C(F)F)c2c(=O)[nH]c(O)nc21 (single isomer, unassigned) [Example 283, (R)- or (S)-3-(Difluoromethyl)-1-(2,2-dimethyl-1-(4-(trifluoromethyl)phenyl)propyl)-6-hydroxy-1H-pyrazolo[3,4-d]pyrimidin-4(5H)-one] | ~1510 |
| CCC(c1ccc(C(F)(F)F)cc1)n1nc(C(F)F)c2c(=O)[nH]c(O)nc21 (single isomer, unassigned) [Example 285, (R)- or (S)-3-(Difluoromethyl)-6-hydroxy-1-(1-(4-(trifluoromethyl)phenyl)propyl)-1H-pyrazolo[3,4-d]pyrimidin-4(5H)-one] | 232 |
| CC(c1ccc(OC(F)(F)F)c(F)c1)n1nc(CC#N)c2c(=O)[nH]c(O)nc21 (single isomer, unassigned) [Example 300, (S)- or (R)-2-(1-(1-(3-Fluoro-4-(trifluoromethoxy)phenyl)ethyl)-6-hydroxy-4-oxo-4,5-dihydro-1H-pyrazolo[3,4-d]pyrimidin-3-yl)acetonitrile] | 101 |

More lines, now with the values ahead:

| Ki [nM] | Compound |
| --- | --- |
| 180 | CC(c1ccc(C(F)(F)F)c(F)c1)n1nc(CC(F)(F)F)c2c(=O)[nH]c(O)nc21 (single isomer, unassigned) [Example 234, (R)- or (S)-1-(1-(3-Fluoro-4-(trifluoromethyl)phenyl)ethyl)-6-hydroxy-3-(2,2,2-trifluoroethyl)-1H-pyrazolo[3,4-d]pyrimidin-4(5H)-one] |
| 166 | O=c1[nH]c(O)nc2c1c(CC(F)(F)F)nn2C(c1ccc(C(F)(F)F)c(F)c1)C1CC1 (single isomer, unassigned) [Example 239, (S)- or (R)-1-(Cyclopropyl(3-fluoro-4-(trifluoromethyl)phenyl)methyl)-6-hydroxy-3-(2,2,2-trifluoroethyl)-1H-pyrazolo[3,4-d]pyrimidin-4(5H)-one] |
| 150 | O=c1[nH]c(O)nc2c1c(CC(F)(F)F)nn2C(c1ccc(OC(F)(F)F)cc1)C1CC1 (single isomer, unassigned) [Example 242, (R)- or (S)-1-(Cyclopropyl(4-(trifluoromethoxy)phenyl)methyl)-6-hydroxy-3-(2,2,2-trifluoroelhyl)-1H-pyrazolo[3,4-d]pyrimidin-4(5H)-one] |
| 120 | O=c1[nH]c(O)nc2c1c(CC(F)(F)F)nn2C(c1ccc(OC(F)(F)F)c(F)c1)C1CC1 (single isomer, unassigned) [Example 253, (S)- or (R)-1-(Cyclopropyl(3-fluoro-4-(trifluoromethoxy)phenyl)methyl)-6-hydroxy-3-(2,2,2-trifluoroethyl)-1H-pyrazolo[3,4-d]pyrimidin-4(5H)-one] |
| 334 | CC(C)(C)C(c1ccc(C(F)(F)F)cc1)n1nc(CC(F)(F)F)c2c(=O)[nH]c(O)nc21 (single isomer, unassigned) [Example 262, (R)- or (S)-1-(2,2-Dimethyl-1-(4-(trifluoromethyl)phenyl)propyl)-6-hydroxy-3-(2,2,2-trifluoroethyl)-1H-pyrazolo[3,4-d]pyrimidin-4(5H)-one] |
| 600 | CC(C)C(c1ccc(OC(F)(F)F)c(F)c1)n1nc(CC(F)(F)F)c2c(=O)[nH]c(O)nc21 (single isomer, unassigned) [Example 264, (R)- or (S)-1-(1-(3-Fluoro-4-(trifluoromethoxy)phenyl)-2-methylpropyl)-6-hydroxy-3-(2,2,2-trifluoroethyl)-1H-pyrazolo[3,4-d]pyrimidin-4(5H)-one] |
| 448 | CC(c1ccc(C(F)(F)F)cc1)n1nc(C(F)(F)C(F)(F)F)c2c(=O)[nH]c(O)nc21 (single isomer, unassigned) [Example 267, (S)- or (R)-6-Hydroxy-3-(perfluoroethyl)-1-(1-(4-(trifluoromethyl)phenyl)ethyl)-1H-pyrazolo[3,4-d]pyrimidin-4(5H)-one] |
| 206 | CC(C)(C)C(c1ccc(C(F)(F)F)cc1)n1nc(C(F)F)c2c(=O)[nH]c(O)nc21 (single isomer, unassigned) [Example 284, (S)- or (R)-3-(Difluoromethyl)-1-(2,2-dimethyl-1-(4-(trifluoromethyl)phenyl)propyl)-6-hydroxy-1H-pyrazolo[3,4-d]pyrimidin-4(5H)-one] |
| 207 | N#CCc1nn(C(c2ccc(C(F)(F)F)cc2)C2CC2)c2nc(O)[nH]c(=O)c12 (single isomer, unassigned) [Example 297] |
